According to ChEMBL document CHEMBL1122254, “Sulfonyliminoimidazolidines. A new class of oral hypoglycemic agents. 1. 1-[[p-[2-(acylamino)ethyl]phenyl]sulfonyl]-2-iminoimidazolidines” (1983):

How the values were obtained:
Assay type in all cases: functional
[1] = tested on: Rattus norvegicus; assay: Hypoglycemic activity by lowering blood glucose in normal rats by 20% after oral administration.
[2] = tested on: Rattus norvegicus; assay: Compound evaluated for hypoglycemic activity by lowering blood glucose in streptozotocin-diabetic rats by 20% after oral administration; Highest dose tested; Inactive(less than 10% blood sugar decrease)
[3] = tested on: Rattus norvegicus; assay: Compound evaluated for hypoglycemic activity by lowering blood glucose in normal rats by 20% after oral administration; Inactive (less than 10% blood sugar decrease)
[4] = tested on: Rattus norvegicus; assay: Compound evaluated for hypoglycemic activity by lowering blood glucose in normal rats by 20% after oral administration (highest dose tested)
[5] = tested on: Rattus norvegicus; assay: Compound evaluated for hypoglycemic activity by lowering blood glucose in normal rats by 20% after oral administration; inactive (less than 10% blood sugar decrease)
[6] = tested on: Rattus norvegicus; assay: Compound evaluated for hypoglycemic activity by lowering blood glucose in normal rats by 20% after oral administration
[7] = tested on: Rattus norvegicus; assay: Compound evaluated for hypoglycemic activity by lowering blood glucose in streptozotocin-diabetic rats by 20% after oral administration; Inactive(less than 10% blood sugar decrease)
[8] = tested on: Rattus norvegicus; assay: Compound evaluated for hypoglycemic activity by lowering blood glucose in normal rats by 50% after oral administration
[9] = tested on: Rattus norvegicus; assay: Hypoglycemic activity by lowering blood glucose in normal rats by 50% after oral administration.
[10] = tested on: Rattus norvegicus; assay: Compound evaluated for hypoglycemic activity by lowering blood glucose in streptozotocin-diabetic rats by 20% after oral administration; Highest dose tested
[11] = tested on: Rattus norvegicus; assay: Compound evaluated for hypoglycemic activity by lowering blood glucose in normal rats by 20% after oral administration; highest dose tested;inactive(less than 10% blood sugar decrease)
[12] = tested on: Rattus norvegicus; assay: Compound evaluated for hypoglycemic activity by lowering blood glucose in streptozotocin-diabetic rats by 20% after oral administration
[13] = tested on: Rattus norvegicus; assay: Compound evaluated for hypoglycemic activity by lowering blood glucose in normal rats by 50% after oral administration; inactive(less than 10% blood sugar decrease)

## N=C1N(C2CCCCC2)CCN1S(=O)(=O)c1ccc(CCNC(N)=O)cc1
[1]
  ED20: 0.39 mmol/kg
[2]
  ED20: > 0.76 mmol/kg

## COCC(=O)NCCc1ccc(S(=O)(=O)N2CCN(C3CCCCC3)C2=N)cc1
[3]
  ED20: > 0.92 mmol/kg

## N=C1N(C2CCCCC2)CCN1S(=O)(=O)c1ccc(CCNC(=O)c2ccccn2)cc1
[4]
  ED20: > 0.83 mmol/kg

## Cc1ncsc1C(=O)NCCc1ccc(S(=O)(=O)N2CCN(C3CCCCC3)C2=N)cc1
[5]
  ED20: > 0.22 mmol/kg

## N=C1N(C2CCCCC2)CCN1S(=O)(=O)c1ccc(CCNC(=O)c2ccc[n+]([O-])c2)cc1
[6]
  ED20: 0.042 mmol/kg
[7]
  ED20: > 0.64 mmol/kg

## N=C1N(C2CCCCC2)CCN1S(=O)(=O)c1ccc(CCNC(=O)c2ccccc2)cc1
[6]
  ED20: 0.021 mmol/kg
[8]
  ED50: 200 µmol/kg

## C[S+]([O-])CC(=O)NCCc1ccc(S(=O)(=O)N2CCN(C3CCCCC3)C2=N)cc1 (stereo not given)
[1]
  ED20: 0.12 mmol/kg
[2]
  ED20: > 0.66 mmol/kg

## CC[S+]([O-])CCC(=O)NCCc1ccc(S(=O)(=O)N2CCN(C3CCCCC3)C2=N)cc1 (stereo not given)
[1]
  ED20: 0.031 mmol/kg
[9]
  ED50: 200 µmol/kg
[10]
  ED20: > 0.62 mmol/kg

## CN(C)C(C(=O)NCCc1ccc(S(=O)(=O)N2CCN(C3CCCCC3)C2=N)cc1)c1ccccc1 (stereo not given)
[1]
  ED20: 0.037 mmol/kg
[9]
  ED50: 170 µmol/kg
[10]
  ED20: > 0.55 mmol/kg

## CCC[S+]([O-])CC(=O)NCCc1ccc(S(=O)(=O)N2CCN(C3CCCCC3)C2=N)cc1 (stereo not given)
[1]
  ED20: 0.071 mmol/kg
[2]
  ED20: > 0.62 mmol/kg

## N=C(N)NC(=N)NCCc1ccccc1 [PHENFORMIN]
[11]
  ED20: > 1 mmol/kg
[12]
  ED20: 0.16 mmol/kg
[13]
  ED50: > 1000 µmol/kg

## CCCCNC(=O)NS(=O)(=O)c1ccc(C)cc1 [TOLBUTAMIDE]
[6]
  ED20: 0.056 mmol/kg
[7]
  ED20: > 1 mmol/kg
[8]
  ED50: 300 µmol/kg
